Results reported in US20100240605A1, “NOVEL IMMUNOTHERAPY STRATEGY” (priority 2007, published 2010).
“Also recorded” adds a separate entry of the source. Like-named read-outs stand apart in the source and are kept apart here.

Experiments:
[1] = system: B16-F1 mouse melanoma tumors; experiment: Syngeneic B16-F1 melanoma tumors in C57BI6 mice, intratumoral injection; format: in vivo; details: for effect on tumor expansion: single intratumoral dose of 100 μg at day 1 post tumor inoculation, COAM, heparin, saline compared
Experimental: We used B16-F1 mouse melanoma tumors in C57BI6 mice. 0.5 million tumor cells were injected intradermally on day 0 as known in the art. In one experiment, control mice were injected with saline on days 1, 8 and 15. The treated group COAM d1 was injected intratumorally with a single dose of 100 μg COAM on day1. The treated group COAM d1, d8, d15 was injected with 100 μg COAM three times intratumorally. […] In some cases the tumor ulcerated.
At day 18, all tumors were excised and their volumes and weights were measured.
In particular, in the FIGS. 5 A, B, C and D, we used heparin as an additional control. […] Heparin is a polyanion and binds chemokines and mimics heparin sulphate proteoglycans. The experiment was repeated as above with a single intratumoral dose of 100 μg COAM, 100 μg heparin and saline control at day 1 post tumor inoculation.

[2] = system: various human and mouse cell lines; experiment: Toxicity of the test solution on cell lines; format: cell-based; details: test solution (2 mg COAM in 100 μl 0.9% NaCl)
[3] = molecular target: T1, mouse granulocyte chemotactic protein-2 (mGCP-2) (Mus musculus, UniProt P50228); experiment: Chemokine binding in solution, gel filtration chromatography with ELISA of fractions
T1 sequence (P50228 41-132): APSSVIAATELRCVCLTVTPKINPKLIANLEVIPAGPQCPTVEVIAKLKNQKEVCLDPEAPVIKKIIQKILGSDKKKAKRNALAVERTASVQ
Experimental: The COAM preparation was incubated with 50 nanogram mouse GCP-2 and the mixture was analysed by gel filtration chromatography (lower figure) and the presence of GCP-2 in the column fractions was analysed with a sensitive ELISA for mouse GCP-2.
(§1) COAM alone, mGCP-2 or COAM incubated in the presence of mGCP-2 were separated by classical gel filtration chromatography. The elution fractions were collected and the presence of mGCP-2 was determined in the elution fractions by ELISA specific for mGCP-2. […] Since COAM itself is a mixture of polymers with different lengths, we fractioned first COAM in three fractions and then repeated the mGCP-2 binding and chromatographic analysis (as described above) with the high molecular weight COAM (high MW COAM) and mGCP-2. […] This is illustrated in FIG. 2.

[4] = molecular target: T2, human interleukin-8/CXCL8 (IL-8/CXCL8) (Homo sapiens, UniProt P10145); experiment: Chemokine binding in solution, gel filtration chromatography; details: 500 ng IL-8/CXCL8; free IL-8 eluted at low molecular masses
T2 sequence (P10145 21-99): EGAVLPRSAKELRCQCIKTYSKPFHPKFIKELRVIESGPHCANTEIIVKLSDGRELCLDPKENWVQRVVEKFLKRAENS
Experimental: as §1
In a second set of experiments human 500 ng interleukin-8/CXCL8 (IL-8/CXCL8) was tested.

[5] = molecular target: human monocyte chemotactic protein-1/CCL2 (MCP-1/CCL2) (Homo sapiens, UniProt P13500); experiment: as above; details: 500 ng MCP-1/CCL2; free MCP-1 eluted at low molecular weight
Chain of human monocyte chemotactic protein-1/CCL2 (MCP-1/CCL2) (P13500 24-99): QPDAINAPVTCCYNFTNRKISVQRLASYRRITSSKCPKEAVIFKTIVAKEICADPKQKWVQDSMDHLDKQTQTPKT
Experimental: as §1
In a third set, 500 ng human monocyte chemotactic protein-1/CCL2 (MCP-1/CCL2) was tested. Again, free MCP-1 eluted at low molecular weight, compatible with the relative size of MCP-1. […] This is again compatible with its binding to COAM

[6] = molecular target: T3, synthetic human IP-10/CXCL10 (Homo sapiens, UniProt P02778); experiment: as above; details: no separate IP-10 result printed
T3 sequence (P02778 22-98): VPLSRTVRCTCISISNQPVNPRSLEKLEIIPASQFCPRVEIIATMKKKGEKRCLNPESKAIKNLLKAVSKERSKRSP
From the text: In a fourth example, we used synthetic human IP-10/CXCL10.

B16-F1 cells = experiment: B16 melanoma formation in immunocompromised SCID mice; format: in vivo; details: 500 000 B16-F1 cells s.c. on day 0
From the text: We used a similar protocol as above in immunocompromised SCID mice. The SCID mice received s.c. 500 000 B16-F1 cells on day 0.

[7] = system: CD11b+Gr-1+ cells (neutrophils); experiment: EAE model: neutrophil mobilization to the peritoneal cavity and infiltration of spinal cord and brain; format: in vivo, mice; details: for CD11b^+Gr-1^+ cells in the peritoneal cavity: 2 mg COAM i.p. on day 0 and 7
Experimental: FIG. 9: Mobilization of neutrophils into the peritoneal cavity in response to COAM. Mice were immunized with SCH in CFA and treated with COAM (2 mg) or saline on days 0 and 7. Peritoneal cells were collected on days 5, 9 and 14, or 16 post immunization. […] Data represent three individual experiments taken together; bars represent averages±standard error of the mean of seven or nine mice. (B) Flow cytometric analysis of peritoneal cells of control mice and COAM-treated mice. Cells were stained for the presence of CD11b using FITC-labeled antibodies, and of Gr-1 using PE-labeled antibodies. Numbers indicated on each graph represent percent CD11b^+Gr-1^+ cells. One representative analysis out of 9 is shown.
FIG. 10: Neutrophil infiltration in the spinal cord and brain of COAM-treated mice is reduced compared with saline-treated control mice. […] Data of 3 pooled experiments are shown. Histograms represent averages±SEM. (B) Flow cytometry of cells isolated from the spinal cord and brain on day 16 post immunization of mice treated with COAM (2 mg) or saline on days 0 and 7. Cells were stained for CD11b and Gr-1. Numbers indicated on each graph represent percent CD11b^+Gr-1^+ cells. Each plot represents a staining pattern of pooled cells from 3 mice. Results are representative of three independent experiments with similar results.
(§2) Experimental autoimmune encephalomyelitis was induced in mice (mice were immunized with SCH in CFA) and the groups were randomized. One group was treated with 2 mg COAM intraperitoneally on day 0 and day 7.
Mice were immunized with SCH in CFA on day 0 and treated i.p. with 2 mg COAM or saline on day 0 and 7. Cells were obtained from the peritoneal cavity of saline- and COAM-treated mice on day 5, 9 and 14, 15 or 16 after immunization. Cells were stained with anti-CD11b-FITC and anti-Gr-1-PE antibodies. The proportion of CD11b^+Gr-1^+ cells is shown. Results represent pooled data from 3 experiments and N indicates the total number of mice examined. *p<0.05 between COAM-treated and saline-treated mice (Mann-Whitney U-test).

[8] = system: experimental autoimmune encephalomyelitis; experiment: EAE model: clinical course of active EAE; format: in vivo, SJL/J mice
Experimental: FIG. 11: The clinical course of active EAE is attenuated in COAM-treated mice. SJL/J mice were immunized subcutaneously with syngeneic spinal cord homogenate for induction of EAE. They were treated i.p. with 2 mg COAM (filled boxes) or saline (open boxes) on day 0 (A), day 8 (B) or days 0 and 7 (C) post immunization. The clinical course of EAE in these mice is shown as mean daily group score±sem. The disease parameters are given as an insert. Dead animals were scored 6 from the day of death until the end of the study. Arrows point to the days of COAM administration. *p<0.05; **p<0.01 for comparison with saline-treated group; Wilcoxon test or Chi-square test.
as §2
SJL/J mice were immunized subcutaneously with syngeneic spinal cord homogenate for induction of EAE. They were treated i.p. with 2 mg COAM (filled boxes) or saline (open boxes) on day 0 (A), day 8 (B) or days 0 and 7 (C) post immunization. The clinical course of EAE in these mice is shown as mean daily group score±sem. The disease parameters are given as an insert. Dead animals were scored 6 from the day of death until the end of the study. […]

peritoneal leukocytes = details: for neutrophils among peritoneal cells: 2 mg unfractionated COAM i.p.
Experimental: In a first set of in vivo experiments, 2 mg of COAM (unfractionated, solution of 2 mg in 100 μl sterile pyrogen-free 0.9% NaCl) was injected intraperitoneally per mouse and leukocytes were counted and defined at different times after injection of groups of 3-4 mice.

[9] = system: Moloney Sarcoma Virus-induced tumor; details: IP administration; De Clercq et al. 1972; cited from earlier work
[10] = EAE mice, 2 mg COAM i.p. on days 0 and 7

## heparin [reference compound]
[1]
  effect on tumor expansion: some effect in the early phase

## chlorite-oxidized oxyamylose [COAM]
[2]
  toxic effect on cell lines: not any toxic effect
[3]; COAM incubated with mGCP-2, mGCP-2 alone eluted at about 10 kilodaltons
  elution position of mGCP-2 together with COAM (molecular weight range): > 50 kilodaltons
[3]; in solution, gel filtration, ELISA for mouse GCP-2
  binding of mGCP-2: GCP-2 binds to COAM in solution
[4]
  elution of interleukin-8 in the presence of COAM: coeluted with COAM at high relative molecular weight
[5]
  elution of MCP-1 in the presence of COAM: eluted at the position of the high molecular weight of COAM
[6]
  chemokine binding, conclusion from results with mGCP-2, IL-8, MCP-1, IP-10: general chemokine-binding factor
[1]; 100 μg intratumorally d1, d8, d15 versus d1 only
  additional effect of three injections instead of one injection: No additional effect
[1]; COAM-treated groups (100 μg intratumorally d1, or d1, d8, d15) versus saline
  overall mean tumor volume and weights as function of time: significantly reduced
[1]; COAM-treated groups versus saline
  tumor burden with exclusion of ulcerated open tumors: significant effect on tumor burden
[1]; after intratumoral injection, compared with saline and heparin
  spleen weight (readout of systemic inflammation): no overt splenomegaly
[1]; single COAM-treated group (COAM d1 only) versus saline, several experiments combined, p<0.015
  tumor volume: significantly reduced
[1]; single COAM-treated group (COAM d1 only) versus saline, several experiments combined, p<0.025
  tumor weight: significantly reduced
[1]; single dose of 100 μg COAM intratumorally at Day 1 versus saline, 6 COAM-treated and 5 control mice
  tumor growth: significant reduction of tumor growth
[1]
  effect on tumor expansion: lasting and significant effect
[1]; triple treated COAM versus control group, p<0.030
  tumor volume: significantly reduced
[1]; triple treated COAM versus control group, p<0.05
  tumor weight: significantly reduced
B16-F1 cells
  protection against tumors in an immunocompromised host: protects an immunocompromised host against tumors
[7]; [10]
  mast cell population in the peritoneal cavity: reduced; also recorded: decrease in mast cells
  neutrophil recruitment to the peritoneal cavity: increased neutrophil recruitment; also recorded: specific infiltration of neutrophils
[7]; day 5 p.i., N = 8
  CD11b^+Gr-1^+ cells in the peritoneal cavity: 322.78 ± 79.43 (N = 8) ×10^4
[7]; day 9 p.i., N = 9, p<0.05 versus saline
  CD11b^+Gr-1^+ cells in the peritoneal cavity: 1210.85 ± 272.05 (N = 9) * ×10^4
[7]; day 14-16 p.i., N = 5, p<0.05 versus saline
  CD11b^+Gr-1^+ cells in the peritoneal cavity: 276.66 ± 67.29 (N = 5) * ×10^4
[7]; day 16 post immunization, 2 mg COAM i.p. on days 0 and 7, versus saline
  neutrophil infiltration into spinal cord and brain: reduced; also recorded: lower percentage of neutrophils
[8]; 2 mg COAM i.p. on day 0, day 8 or days 0 and 7 post immunization, versus saline
  clinical course of active EAE (mean daily group score): attenuated
[8]; two injections of COAM
  protection against severe EAE: protect a mammalian host against severe EAE
Peritoneal leukocytes; 2 mg unfractionated COAM i.p. per mouse
  survival and morbidity of the mice: survived without apparent morbidity
Peritoneal leukocytes; 2 mg unfractionated COAM i.p. per mouse, within 2 hours, control 126.000 cells
  peritoneal cells: 630.000 cells
Peritoneal leukocytes; at 4 h
  neutrophils among peritoneal cells: 64.1%
Peritoneal leukocytes; at 8 h
  neutrophils among peritoneal cells: 70.3%
Peritoneal leukocytes; within 2 hours, control 2.2%
  neutrophils among peritoneal cells: 18.1%
[9]
  regression of tumors: not show a regression of tumors
